What was measured:
Assay in all cases: cells
HCC2218 = format: functional, cell-based, Homo sapiens; details: Homo sapiens, HCC2218;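 note: cell viability assay read-out, with IC50 given as the concentration that inhibits growth of the cell line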
Description: SANGER: Inhibition of human HCC2218 cell growth in a cell viability assay.

MOLT-16 = format: functional, cell-based, Homo sapiens; details: Homo sapiens, MOLT-16;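 note: growth inhibition of human MOLT-16 cells, read out with a cell viability assay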
Description: SANGER: Inhibition of human MOLT-16 cell growth in a cell viability assay.

K562 = format: functional, cell-based, Homo sapiens; details: Homo sapiens, K562
Description: SANGER: Inhibition of human K-562 cell growth in a cell viability assay.

ALL-PO = format: functional, cell-based, Homo sapiens; details: Homo sapiens, ALL-PO;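 note: growth inhibition of ALL-PO cells, read out by a cell viability assay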
Description: SANGER: Inhibition of human ALL-PO cell growth in a cell viability assay.

MS-1 = format: functional, cell-based, Homo sapiens; details: Homo sapiens, MS-1;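 note: growth inhibition of MS-1 cells, read out by cell viability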
Description: SANGER: Inhibition of human MS-1 cell growth in a cell viability assay.

SNU-C2B = format: functional, cell-based; details: Homo sapiens;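 note: cell viability readout used to measure compound-driven suppression of SNU-C2B cell proliferation, IC50 marking half-maximal growth inhibition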
Description: SANGER: Inhibition of human SNU-C2B cell growth in a cell viability assay.

SW684 = format: functional, cell-based, Homo sapiens; details: Homo sapiens, SW684; read-out: IC50;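 note: growth inhibition of human SW684 cells, measured by a cell viability assay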
Description: SANGER: Inhibition of human SW684 cell growth in a cell viability assay.

SK-MEL-2 = format: functional, cell-based, Homo sapiens; details: Homo sapiens, SK-MEL-2;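 note: growth inhibition of human SK-MEL-2 cells measured with a cell viability assay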
Description: SANGER: Inhibition of human SK-MEL-2 cell growth in a cell viability assay.

DB = format: functional, cell-based, Homo sapiens; details: Homo sapiens, DB
Description: SANGER: Inhibition of human DB cell growth in a cell viability assay.

JVM-3 = format: functional, cell-based, Homo sapiens; details: Homo sapiens, JVM-3;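 note: growth inhibition of human JVM-3 cells, read out with a cell viability assay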
Description: SANGER: Inhibition of human JVM-3 cell growth in a cell viability assay.

LB771-HNC = format: functional, cell-based; details: Homo sapiens;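 note: growth inhibition of LB771-HNC human cells, read out with a cell viability assay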
Description: SANGER: Inhibition of human LB771-HNC cell growth in a cell viability assay.

MN-60 = format: functional, cell-based, Homo sapiens; details: Homo sapiens, MN-60;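 note: growth inhibition of the MN-60 cell line, determined with a cell viability assay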
Description: SANGER: Inhibition of human MN-60 cell growth in a cell viability assay.

NB13 = format: functional, cell-based, Homo sapiens; details: Homo sapiens, NB13;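 note: cell viability readout measuring growth inhibition of human NB13 cells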
Description: SANGER: Inhibition of human NB13 cell growth in a cell viability assay.

NKM-1 = format: functional, cell-based, Homo sapiens; details: Homo sapiens, NKM-1;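 note: growth inhibition of NKM-1 cells, read out with a cell viability assay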
Description: SANGER: Inhibition of human NKM-1 cell growth in a cell viability assay.

NCI-H1299 = format: functional, cell-based; details: Homo sapiens;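 note: growth inhibition of human NCI-H1299 cells, read out by a cell viability assay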
Description: SANGER: Inhibition of human NCI-H1299 cell growth in a cell viability assay.

Becker = format: functional, cell-based, Homo sapiens; details: Homo sapiens, Becker;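 note: growth inhibition of Becker cells, read out with a cell viability assay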
Description: SANGER: Inhibition of human Becker cell growth in a cell viability assay.

LS-411N = format: functional, cell-based, Homo sapiens; details: Homo sapiens, LS-411N
SCH = format: functional, cell-based, Homo sapiens; details: Homo sapiens, SCH;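 note: growth inhibition of human SCH cells, read out in a cell viability assay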
Description: SANGER: Inhibition of human SCH cell growth in a cell viability assay.

RH-1 = format: functional, cell-based, Homo sapiens; details: Homo sapiens, RH-1;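 note: growth inhibition of human RH-1 cells, read out with a cell viability assay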
Description: SANGER: Inhibition of human RH-1 cell growth in a cell viability assay.

NB6 = format: functional, cell-based, Homo sapiens; details: Homo sapiens, NB6
Description: SANGER: Inhibition of human NB6 cell growth in a cell viability assay.

C8166 = format: functional, cell-based, Homo sapiens; details: Homo sapiens, C8166;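 note: growth inhibition of human C8166 cells measured by a cell viability assay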
Description: SANGER: Inhibition of human C8166 cell growth in a cell viability assay.

TE-11 = format: functional, cell-based; details: Homo sapiens;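 note: growth inhibition of human TE-11 cells, read out by a cell viability assay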
Description: SANGER: Inhibition of human TE-11 cell growth in a cell viability assay.

L-428 = format: functional, cell-based, Homo sapiens; details: Homo sapiens, L-428
Description: SANGER: Inhibition of human L-428 cell growth in a cell viability assay.

COLO-824 = format: functional, cell-based, Homo sapiens; details: Homo sapiens, COLO-824
Description: SANGER: Inhibition of human COLO-824 cell growth in a cell viability assay.

OMC-1 = format: functional, cell-based, Homo sapiens; details: Homo sapiens, OMC-1;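 note: growth inhibition of the OMC-1 cell line, measured by a cell viability assay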
Description: SANGER: Inhibition of human OMC-1 cell growth in a cell viability assay.

MZ2-MEL = format: functional, cell-based, Homo sapiens; details: Homo sapiens, MZ2-MEL;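 note: growth inhibition of MZ2-MEL cells read out with a cell viability assay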
Description: SANGER: Inhibition of human MZ2-MEL cell growth in a cell viability assay.

CTV-1 = format: functional, cell-based, Homo sapiens; details: Homo sapiens, CTV-1;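 note: growth inhibition of the cell line, read out with a cell viability assay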
Description: SANGER: Inhibition of human CTV-1 cell growth in a cell viability assay.

EOL1 = format: functional, cell-based, Homo sapiens; details: Homo sapiens, EOL1;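 note: growth inhibition of EoL-1 cells, read out by a cell viability assay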
Description: SANGER: Inhibition of human EoL-1-cell cell growth in a cell viability assay.

NCI-H1155 = format: functional, cell-based, Homo sapiens; details: Homo sapiens, NCI-H1155;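 note: cell growth inhibition measured by a viability assay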
Description: SANGER: Inhibition of human NCI-H1155 cell growth in a cell viability assay.

TE-6 = format: functional, cell-based, Homo sapiens; details: Homo sapiens, TE-6;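 note: growth inhibition of TE-6 cells, read out with a cell viability assay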
Description: SANGER: Inhibition of human TE-6 cell growth in a cell viability assay.

ES3 = format: functional, cell-based, Homo sapiens; details: Homo sapiens, ES3;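 note: growth inhibition of ES3 cells, read out with a cell viability assay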
Description: SANGER: Inhibition of human ES3 cell growth in a cell viability assay.

Calu-6 = format: functional, cell-based, Homo sapiens; details: Homo sapiens, Calu-6;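 note: growth of human Calu-6 cells, read out by a cell viability assay, IC50 marking inhibition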
Description: SANGER: Inhibition of human Calu-6 cell growth in a cell viability assay.

LB2241-RCC = format: functional, cell-based, Homo sapiens; details: Homo sapiens, LB2241-RCC;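 note: cell viability assay measuring how strongly the cultured human renal carcinoma line is prevented from growing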
Description: SANGER: Inhibition of human LB2241-RCC cell growth in a cell viability assay.

NOMO-1 = format: functional, cell-based, Homo sapiens; details: Homo sapiens, NOMO-1;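 note: growth inhibition of human NOMO-1 cells measured by a cell viability assay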
Description: SANGER: Inhibition of human NOMO-1 cell growth in a cell viability assay.

NB69 = format: functional, cell-based, Homo sapiens; details: Homo sapiens, NB69;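 note: growth inhibition of NB69 cells, determined by a cell viability assay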
Description: SANGER: Inhibition of human NB69 cell growth in a cell viability assay.

BT-474 = format: functional, cell-based, Homo sapiens; details: Homo sapiens, BT-474
Description: SANGER: Inhibition of human BT-474 cell growth in a cell viability assay.

KU812 cell line = format: functional, cell-based, Homo sapiens; details: Homo sapiens, KU812;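 note: growth inhibition of KU812 cells, read out with a cell viability assay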
Description: SANGER: Inhibition of human KU812 cell growth in a cell viability assay.

COR-L88 = format: functional, cell-based, Homo sapiens; details: Homo sapiens, COR-L88;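 note: growth inhibition of COR-L88 cells, read out with a cell viability assay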
Description: SANGER: Inhibition of human COR-L88 cell growth in a cell viability assay.

COLO-668 = format: functional, cell-based, Homo sapiens; details: Homo sapiens, COLO-668
Description: SANGER: Inhibition of human COLO-668 cell growth in a cell viability assay.

TE-1 = format: functional, cell-based, Homo sapiens; details: Homo sapiens, TE-1
Description: SANGER: Inhibition of human TE-1 cell growth in a cell viability assay.

SNU-5 = format: functional, cell-based, Homo sapiens; details: Homo sapiens, SNU-5;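 note: cell viability readout used to measure growth inhibition in human NCI-SNU-5 cells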
Description: SANGER: Inhibition of human NCI-SNU-5 cell growth in a cell viability assay.

NCI-H1304 = format: functional, cell-based, Homo sapiens; details: Homo sapiens, NCI-H1304;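 note: growth inhibition of the cancer cell line, measured in a cell viability assay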
Description: SANGER: Inhibition of human NCI-H1304 cell growth in a cell viability assay.

KM-H2 = format: functional, cell-based, Homo sapiens; details: Homo sapiens, KM-H2;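 note: growth inhibition of KM-H2 cells, read out by a cell viability assay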
Description: SANGER: Inhibition of human KM-H2 cell growth in a cell viability assay.

NCI-N87 = format: functional, cell-based; details: Homo sapiens;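 note: growth inhibition of human NCI-N87 cells, read out with a cell viability assay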
Description: SANGER: Inhibition of human NCI-N87 cell growth in a cell viability assay.

SW 954 = format: functional, cell-based, Homo sapiens; details: Homo sapiens, SW 954;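 note: growth inhibition of SW954 human cancer cells, read out as cell viability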
Description: SANGER: Inhibition of human SW954 cell growth in a cell viability assay.

COLO-320-HSR = format: functional, cell-based, Homo sapiens; details: Homo sapiens, COLO-320-HSR;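 note: growth inhibition of COLO-320-HSR cells, determined with a cell viability assay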
Description: SANGER: Inhibition of human COLO-320-HSR cell growth in a cell viability assay.

RS4-11 = format: functional, cell-based, Homo sapiens; details: Homo sapiens, RS4-11;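 note: growth inhibition of RS4-11 cells, read out by a cell viability assay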
Description: SANGER: Inhibition of human RS4-11 cell growth in a cell viability assay.

ES5 = format: functional, cell-based, Homo sapiens; details: Homo sapiens, ES5;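 note: growth inhibition of human ES5 cells, read out by a cell viability assay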
Description: SANGER: Inhibition of human ES5 cell growth in a cell viability assay.

NCI-H1648 = format: functional, cell-based, Homo sapiens; details: Homo sapiens, NCI-H1648;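 note: cell viability assay measuring inhibition of NCI-H1648 cell growth, from the Sanger screening data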
Description: SANGER: Inhibition of human NCI-H1648 cell growth in a cell viability assay.

NCI-H2126 = format: functional, cell-based, Homo sapiens; details: Homo sapiens, NCI-H2126;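 note: growth inhibition of the cancer cell line, determined with a cell viability readout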
Description: SANGER: Inhibition of human NCI-H2126 cell growth in a cell viability assay.

`NC1(c2ccc(-c3nc4ccn5c(=O)[nH]nc5c4cc3-c3ccccc3)cc2)CCC1` [MK-2206] was tested, and the IC50 (HCC2218) was 1680 nM, the IC50 (MOLT-16) was 303 nM and the IC50 (K562) was greater than 4000 nM. For the same compound, the IC50 (ALL-PO) was greater than 4000 nM, the IC50 (MS-1) was greater than 4000 nM and the IC50 (SNU-C2B) was greater than 4000 nM. For the same compound, the IC50 (SW684) was greater than 4000 nM, the IC50 (SK-MEL-2) was greater than 4000 nM and the IC50 (DB) was greater than 4000 nM. It also gave an IC50 (JVM-3) greater than 4000 nM, an IC50 (LB771-HNC) greater than 4000 nM and an IC50 (MN-60) of 2300 nM. It also gave an IC50 (NB13) greater than 4000 nM, an IC50 (NKM-1) of 863 nM and an IC50 (NCI-H1299) greater than 4000 nM. For the same compound, the IC50 (Becker) was greater than 4000 nM, the IC50 (LS-411N) was greater than 4000 nM and the IC50 (SCH) was greater than 4000 nM. It also gave an IC50 (RH-1) greater than 4000 nM, an IC50 (NB6) greater than 4000 nM and an IC50 (C8166) greater than 4000 nM. For the same compound, the IC50 (TE-11) was greater than 4000 nM, the IC50 (L-428) was greater than 4000 nM and the IC50 (COLO-824) was greater than 4000 nM. For the same compound, the IC50 (OMC-1) was 1750 nM, the IC50 (MZ2-MEL) was greater than 4000 nM and the IC50 (CTV-1) was greater than 4000 nM. For the same compound, the IC50 (EOL1) was 3070 nM, the IC50 (NCI-H1155) was greater than 4000 nM and the IC50 (TE-6) was greater than 4000 nM. It also gave an IC50 (ES3) of 2500 nM, an IC50 (Calu-6) greater than 4000 nM and an IC50 (LB2241-RCC) of 997 nM. For the same compound, the IC50 (NOMO-1) was greater than 4000 nM, the IC50 (NB69) was 2390 nM and the IC50 (BT-474) was greater than 4000 nM. The IC50 (KU812 cell line) was greater than 4000 nM, the IC50 (COR-L88) was greater than 4000 nM and the IC50 (COLO-668) was greater than 4000 nM. For the same compound, the IC50 (TE-1) was greater than 4000 nM, the IC50 (SNU-5) was greater than 4000 nM and the IC50 (NCI-H1304) was greater than 4000 nM. The IC50 (KM-H2) was greater than 4000 nM, the IC50 (NCI-N87) was greater than 4000 nM and the IC50 (SW 954) was greater than 4000 nM. For the same compound, the IC50 (COLO-320-HSR) was greater than 4000 nM, the IC50 (RS4-11) was 346 nM and the IC50 (ES5) was 345 nM.

In the case of `CC(C)C[C@H](NC(=O)[C@H](Cc1ccccc1)NC(=O)c1cnccn1)B(O)O` [BORTEZOMIB], the IC50 (HCC2218) is reported as 19.5 nM, the IC50 (MOLT-16) is reported as 2.89 nM and the IC50 (K562) is reported as 4.12 nM. It also gave an IC50 (ALL-PO) greater than 20 nM, an IC50 (MS-1) greater than 20 nM and an IC50 (SW684) of 0.821 nM. It also gave an IC50 (SK-MEL-2) greater than 20 nM, an IC50 (DB) of 3.41 nM and an IC50 (JVM-3) of 13 nM. The IC50 (LB771-HNC) was 0.474 nM, the IC50 (MN-60) was 8.14 nM and the IC50 (NB13) was 2 nM. For the same compound, the IC50 (NKM-1) was 2 nM, the IC50 (NCI-H1299) was greater than 20 nM and the IC50 (Becker) was 1.83 nM. For the same compound, the IC50 (LS-411N) was 1.53 nM, the IC50 (SCH) was greater than 20 nM and the IC50 (RH-1) was greater than 20 nM. For the same compound, the IC50 (NB6) was 8.48 nM, the IC50 (NCI-H1648) was 4.13 nM and the IC50 (C8166) was greater than 20 nM. It also gave an IC50 (L-428) greater than 20 nM, an IC50 (COLO-824) greater than 20 nM and an IC50 (OMC-1) of 4.18 nM. For the same compound, the IC50 (MZ2-MEL) was 0.407 nM, the IC50 (CTV-1) was 2.8 nM and the IC50 (EOL1) was 18.3 nM. For the same compound, the IC50 (NCI-H1155) was greater than 20 nM, the IC50 (TE-6) was greater than 20 nM and the IC50 (ES3) was greater than 20 nM. It also gave an IC50 (Calu-6) of 1.29 nM, an IC50 (LB2241-RCC) of 0.804 nM and an IC50 (NOMO-1) of 4.33 nM. The IC50 (NB69) was 2.46 nM, the IC50 (BT-474) was greater than 20 nM and the IC50 (KU812 cell line) was 2.42 nM. For the same compound, the IC50 (COR-L88) was 3.47 nM, the IC50 (COLO-668) was greater than 20 nM and the IC50 (TE-1) was 1.03 nM. For the same compound, the IC50 (SNU-5) was 5.17 nM, the IC50 (NCI-H1304) was greater than 20 nM and the IC50 (KM-H2) was greater than 20 nM. For the same compound, the IC50 (NCI-N87) was greater than 20 nM, the IC50 (SW 954) was 2.9 nM and the IC50 (NCI-H2126) was 1.8 nM. For the same compound, the IC50 (COLO-320-HSR) was 3.92 nM, the IC50 (RS4-11) was greater than 20 nM and the IC50 (ES5) was 10.4 nM.

Reference: ChEMBL document CHEMBL1201861, “Genomics of Drug Sensitity in Cancer screening data, Wellcome Trust Sanger Institute”
